Data published in ChEMBL document CHEMBL6177980 (J Med Chem, 2025).
Converted amounts (≈) assume the structure as drawn.

What was measured:
[1] = Cmax in fasted Sprague-Dawley rat at 20 mg/kg, po by LC-MS/MS analysis; type: ADME, organism-based; settings: in vivo
[2] = AUC (0 to t) in fasted Sprague-Dawley rat at 20 mg/kg, po by LC-MS/MS analysis; type: ADME, organism-based; settings: in vivo
[3] = Stability of compound at pH 1.5 assessed as change in purity at 1 mg/ml incubated for 4 hrs by HPLC analysis; type: physicochemical; settings: buffer, pH 1.5, 4 h
[4] = Stability of compound at pH 1.5 assessed as change in purity at 1 mg/ml incubated for 12 hrs by HPLC analysis; type: physicochemical; settings: buffer, pH 1.5, 12 h
[5] = Stability of compound at pH 1.5 assessed as change in purity at 1 mg/ml incubated for 24 hrs by HPLC analysis; type: physicochemical; settings: buffer, pH 1.5, 24 h
[6] = Stability of compound at pH 4.0 assessed as change in purity at 1 mg/ml incubated for 4 hrs by HPLC analysis; type: physicochemical; settings: buffer, pH 4, 4 h
[7] = Stability of compound at pH 4.0 assessed as change in purity at 1 mg/ml incubated for 12 hrs by HPLC analysis; type: physicochemical; settings: buffer, pH 4, 12 h
[8] = Stability of compound at pH 4.0 assessed as change in purity at 1 mg/ml incubated for 24 hrs by HPLC analysis; type: physicochemical; settings: buffer, pH 4, 24 h
[9] = Stability of compound at pH 6.8 assessed as change in purity at 1 mg/ml incubated for 4 hrs by HPLC analysis; type: physicochemical; settings: buffer, pH 6.8, 4 h
[10] = Stability of compound at pH 6.8 assessed as change in purity at 1 mg/ml incubated for 12 hrs by HPLC analysis; type: physicochemical; settings: buffer, pH 6.8, 12 h
[11] = Stability of compound at pH 6.8 assessed as change in purity at 1 mg/ml incubated for 24 hrs by HPLC analysis; type: physicochemical; settings: buffer, pH 6.8, 24 h
[12] = Oral bioavailability in fasted Cynomolgus monkey administered orally by LC-MS/MS analysis; type: ADME, organism-based, Macaca fascicularis; settings: in vivo
[13] = Aqueous solubility of compound; type: physicochemical; settings: aqueous medium
[14] = Cmax in fasted Sprague-Dawley rat at 24 mg/kg, po by LC-MS/MS analysis; type: ADME, organism-based; settings: in vivo
[15] = AUC (0 to t) in fasted Sprague-Dawley rat at 24 mg/kg, po by LC-MS/MS analysis; type: ADME, organism-based; settings: in vivo
[16] = Cmax in fasted Sprague-Dawley rat at 17.5 mg/kg, po by LC-MS/MS analysis; type: ADME, organism-based; settings: in vivo
[17] = AUC (0 to t) in fasted Sprague-Dawley rat at 17.5 mg/kg, po by LC-MS/MS analysis; type: ADME, organism-based; settings: in vivo
[18] = Cmax in fasted Sprague-Dawley rat at 19 mg/kg, po by LC-MS/MS analysis; type: ADME, organism-based; settings: in vivo
[19] = AUC (0 to t) in fasted Sprague-Dawley rat at 19 mg/kg, po by LC-MS/MS analysis; type: ADME, organism-based; settings: in vivo

**Q.** What does the source list for `CC(=O)OC[C@@]1(F)O[C@@H](n2ccc(=O)n(COC(=O)c3cccnc3)c2=O)[C@H](OC(C)=O)[C@@H]1OC(C)=O`?
**A.** Cmax [1]: 3120 ng/mL; AUC(0-t) [2]: 15700 ng·h/mL; Activity [3]: -3%; Activity [4]: -8.5%; Activity [5]: -15.7%; Activity [6]: 0%; Activity [7]: -0.1%; Activity [8]: -0.1%; Activity [9]: -1.6%; Activity [10]: -4.3%; Activity [11]: -8.6%; bioavailability [12]: 100%; solubility [13]: 700 µg/mL (≈ 1340 µM)

**Q.** Which Activity [3] does the source give for `CC(C)C(=O)O[C@H]1[C@H](n2ccc(=O)n(COC(=O)c3cccnc3)c2=O)O[C@](F)(COC(=O)c2cccnc2)[C@H]1OC(=O)C(C)C` here?
**A.** The Activity was -2.8%.

**Q.** What about the Activity [4] of the same compound?
**A.** The Activity was -4.8%.

**Q.** And the Activity [5]?
**A.** Its Activity is -7.8%.

**Q.** And the Activity [6]?
**A.** The Activity was -0.6%.

**Q.** And the Activity [7]?
**A.** The Activity was -0.8%.

**Q.** What about the Activity [8] of the same compound?
**A.** Its Activity is -0.8%.

**Q.** What about the Activity [9] of the same compound?
**A.** Its Activity is -3.4%.

**Q.** What about the Activity [10] of the same compound?
**A.** The Activity was -8.1%.

**Q.** And the Activity [11]?
**A.** Its Activity is -15.9%.

**Q.** And the bioavailability [12]?
**A.** Its bioavailability is 102%.

**Q.** For `CCC(=O)OC[C@@]1(F)O[C@@H](n2ccc(=O)n(COC(=O)c3cccnc3)c2=O)[C@H](OC(=O)CC)[C@@H]1OC(=O)CC`, which Activity [3] is on record?
**A.** The Activity was -1.9%.

**Q.** And the Activity [4]?
**A.** Its Activity is -5.3%.

**Q.** And the Activity [5]?
**A.** The Activity was -9.8%.

**Q.** What about the Activity [6] of the same compound?
**A.** Its Activity is 0%.

**Q.** And the Activity [7]?
**A.** Its Activity is -0.1%.

**Q.** And the Activity [8]?
**A.** The Activity was -0.1%.

**Q.** And the Activity [9]?
**A.** Its Activity is -1.9%.

**Q.** And the Activity [10]?
**A.** The Activity was -4.9%.

**Q.** What about the Activity [11] of the same compound?
**A.** Its Activity is -9.7%.

**Q.** For `CC(C)C(=O)OC[C@@]1(F)O[C@@H](n2ccc(=O)n(COC(=O)[C@@H]3CCCN3)c2=O)[C@H](OC(=O)C(C)C)[C@@H]1OC(=O)C(C)C.Cl`, which Cmax [14] is on record?
**A.** Its Cmax is 1370 ng/mL.

**Q.** What about the AUC(0-t) [15] of the same compound?
**A.** The AUC(0-t) was 7590 ng·h/mL.

**Q.** And the Activity [3]?
**A.** Its Activity is -1.3%.

**Q.** What about the Activity [4] of the same compound?
**A.** Its Activity is -4.1%.

**Q.** What about the Activity [5] of the same compound?
**A.** The Activity was -7.9%.

**Q.** What about the Activity [6] of the same compound?
**A.** The Activity was -35.2%.

**Q.** What about the Activity [7] of the same compound?
**A.** Its Activity is -62.4%.

**Q.** What about the Activity [8] of the same compound?
**A.** The Activity was -84.8%.

**Q.** What about the Activity [9] of the same compound?
**A.** The Activity was -27.6%.

**Q.** And the Activity [10]?
**A.** The Activity was -30.5%.

**Q.** What about the Activity [11] of the same compound?
**A.** The Activity was -30.6%.

**Q.** For `CC(C)C(=O)OCn1c(=O)ccn([C@@H]2O[C@](F)(COC(=O)C(C)C)[C@@H](OC(=O)C(C)C)[C@H]2OC(=O)C(C)C)c1=O`, which Activity [3] is on record?
**A.** Its Activity is -1.5%.

**Q.** What about the Activity [4] of the same compound?
**A.** The Activity was -3.7%.

**Q.** And the Activity [5]?
**A.** The Activity was -10.8%.

**Q.** And the Activity [6]?
**A.** Its Activity is 0%.

**Q.** What about the Activity [7] of the same compound?
**A.** Its Activity is 0%.

**Q.** And the Activity [8]?
**A.** The Activity was 0%.

**Q.** What about the Activity [9] of the same compound?
**A.** The Activity was 0%.

**Q.** And the Activity [10]?
**A.** Its Activity is -0.4%.

**Q.** And the Activity [11]?
**A.** The Activity was -1.8%.

**Q.** Which results are given for `CC(=O)OCCOC(=O)n1c(=O)ccn([C@@H]2O[C@](F)(COC(=O)C(C)C)[C@@H](O)[C@H]2O)c1=O`?
**A.** Cmax [16]: 915 ng/mL; AUC(0-t) [17]: 4300 ng·h/mL

**Q.** Which Cmax [18] does the source give for `CC(C)C(=O)OC[C@@]1(F)O[C@@H](n2ccc(=O)n(COC(=O)c3cccnc3)c2=O)[C@@H]2OC(=O)O[C@@H]21` here?
**A.** The Cmax was 1200 ng/mL.

**Q.** What about the AUC(0-t) [19] of the same compound?
**A.** The AUC(0-t) was 9450 ng·h/mL.

**Q.** What about the Activity [3] of the same compound?
**A.** The Activity was -2.1%.

**Q.** What about the Activity [4] of the same compound?
**A.** The Activity was -5.5%.

**Q.** What about the Activity [5] of the same compound?
**A.** The Activity was -9.5%.

**Q.** And the Activity [6]?
**A.** Its Activity is -1.9%.

**Q.** And the Activity [7]?
**A.** The Activity was -5.4%.

**Q.** What about the Activity [8] of the same compound?
**A.** Its Activity is -10.5%.

**Q.** What about the Activity [9] of the same compound?
**A.** The Activity was -45%.

**Q.** What about the Activity [10] of the same compound?
**A.** The Activity was -76%.

**Q.** What about the Activity [11] of the same compound?
**A.** Its Activity is -88.3%.

**Q.** Which Cmax [14] does the source give for `CC(C)C(=O)OC[C@@]1(F)O[C@@H](n2ccc(=O)n(COC(=O)[C@@H](N)C(C)C)c2=O)[C@H](OC(=O)C(C)C)[C@@H]1OC(=O)C(C)C.Cl` here?
**A.** Its Cmax is 1640 ng/mL.

**Q.** What about the AUC(0-t) [15] of the same compound?
**A.** Its AUC(0-t) is 11700 ng·h/mL.

**Q.** What about the Activity [3] of the same compound?
**A.** Its Activity is -0.9%.

**Q.** What about the Activity [4] of the same compound?
**A.** Its Activity is -2.7%.

**Q.** What about the Activity [5] of the same compound?
**A.** Its Activity is -5.2%.

**Q.** And the Activity [6]?
**A.** The Activity was -0.6%.

**Q.** And the Activity [7]?
**A.** The Activity was -1.2%.

**Q.** And the Activity [8]?
**A.** The Activity was -2.1%.

**Q.** And the Activity [9]?
**A.** The Activity was -90.7%.

**Q.** And the Activity [10]?
**A.** The Activity was -98.1%.

**Q.** And the Activity [11]?
**A.** The Activity was -98.1%.
